From PubChem BioAssay AID2305 (GlaxoSmithKline (GSK), 2010)

The molecules below were run on P. falciparum 3D7 growth, pLDH absorbance (assay: blood-stage malaria parasite growth potency – strain 3D7, dose response (AID 2305)).

| Structure (SMILES) | IC50 [µM] |
| --- | --- |
| c1ccc(-c2ccc(-c3csc(Nc4ccncc4)n3)cc2)cc1 | 1.01 |
| Cn1cncc1C(=O)Nc1ccc(-c2cccc(-c3nc4ccc(C(F)(F)F)cc4[nH]3)c2)cc1 | 0.86 |
| CN1CCN(c2ccnc3ccc(NC(=O)Cc4ccc(OCc5ccccc5)cc4)cc23)CC1 | 0.63 |
| CCc1cccc(C)c1-n1nc(-c2cc(C(C)(C)C)oc2C)cc1N | 0.66 |
| CCCc1cn2c3c(cc(C(=O)N[C@@H](Cc4ccccc4)[C@H](O)CNC4CCCCC4)cc13)N(CC)S(=O)(=O)CC2 | 0.08 |
| COc1ccc2nccc([C@@H](O)CN3CCC(NCc4cc5cccnc5[nH]4)CC3)c2n1 | 0.96 |
| COc1ccc(C=NNc2cc(C)nc3c(C)cccc23)c2ccccc12 | 0.22 |
| CC1(C)[C@H]2CC[C@@H](CNc3nc(NCC(=O)Nc4ccc5ccccc5c4)nc(N4CCC(N5CCCC5)CC4)n3)[C@@H]1C2 | 1.19 |
| CC(C)(C)c1ccc2oc(=O)n(C3CCN(C(=O)c4ccc([N+](=O)[O-])o4)CC3)c2c1 | 0.82 |
| Fc1ccc2[nH]cc(CCN3CCC(CNCc4ccccc4)CC3)c2c1 | 0.03 |
| CCNC(=O)Nc1ccc(N(C)c2ccnc(Nc3ccc(CS(C)(=O)=O)cc3)n2)cc1 | 0.09 |
| Clc1ccc(CNC2CCN(CC3CCCCC3)CC2)cc1 | 1.11 |
| CCc1ccccc1-c1csc(C(=O)NCC2CCN(Cc3ccc(C(C)(C)C)cc3)C2)c1 (stereo not drawn) | 1.15 |
| Cc1nc2ccc(S(=O)(=O)Nc3ccc(C(=O)N[C@@H](CCC(=O)O)C(=O)O)cc3)cc2c(=O)[nH]1 | 1.01 |
| Cc1ccc(NC(=O)c2cc(Br)cc(N3CCCN(C)CC3)c2)cc1F | 1.34 |
| Oc1cccc(Nc2ccnc3cc(-c4ccccn4)ccc23)c1 | 0.74 |
| CN1CCN(c2nsc3ccc(-c4ccc(NC(=O)Nc5cc(C(F)(F)F)ccc5F)cc4)cc23)CC1 | 0.24 |
| CC(C)CCN1CCC(Oc2ccc(NC(=O)c3cccs3)cc2Cl)C1 (stereo not drawn) | 1.1 |
| O=C(Nc1nc(-c2ccccn2)cc2ccccc12)c1cccc(Cl)c1 | 0.75 |

| Structure (SMILES) | IC50 [µM] |
| --- | --- |
| CCc1cn(CCc2ccccc2)c2ccc(C(=O)N[C@@H](Cc3ccccc3)[C@H](O)CNC(C)(C)CCCC(C)C)cc12 | 0.22 |
| Cc1[nH]c(C)c(-c2ccc(-c3cc(C(F)(F)F)cc(C(F)(F)F)c3)nc2)c(=O)c1Br | 0.08 |
| O=S(=O)(Nc1cccc(CCN2CCC(N3CCCCC3)CC2)c1)c1cccc2cccnc12 | 0.85 |
| COc1ccc(-c2ccc(NC(=O)c3cccc(Cl)c3)cc2)cc1CN1CCN(C)CC1 | 0.95 |
| O=C(/C=C/c1ccc(Cl)cc1Cl)N1CCC(CCN2CCC(c3c[nH]c4ccccc34)CC2)CC1 | 0.8 |
| CC(N)(Cc1ccc(O)cc1)c1nn[nH]n1 (stereo not drawn) | 0.97 |
| CC(C)COc1ccc(Cl)cc1Cc1ccc(-c2nc3ccc(Cl)cc3[nH]2)o1 | 0.93 |
| CC(CNc1nc(NCC(c2ccccc2)c2ccccc2)c2[nH]cnc2n1)c1ccccc1 (stereo not drawn) | 0.95 |
| COc1ccc(NC(=O)Nc2ccc(-c3ccc(-c4nc5ccccc5[nH]4)cc3)cc2)cc1 | 0.51 |
| N=C(N)c1ccc(C(=O)Nc2cccc(C(=N)N)c2)cc1 | 1.04 |
| CCOC(=O)c1cn(CC)c2cc(N3CCCCC3)c(F)cc2c1=O | 0.13 |
| CCN(CC)C(=NCCCCCCCCN=C(/N=C(/N)Nc1ccc(Cl)cc1)N(CC)CC)/N=C(/N)Nc1ccc(Cl)cc1 | 0.4 |
| O=C(N[C@@H](CC1CCCCC1)C(=O)NC1CCCc2ccccc21)c1ccc(O)c(-c2cccc(C(F)(F)F)c2)c1 (stereo partly drawn) | 0.6 |
| CCCCc1ccc(-c2ccc(-c3c(C)[nH]c(C)c(Br)c3=O)cn2)cc1 | 0.06 |
| O=S(=O)(Nc1cccc(CCN2CCC(N3CCCCC3)CC2)c1)c1ccc(Cl)cc1 | 0.92 |
| Cc1nccn1Cc1cc(C(C)(C)C)c(O)c(C(C)(C)C)c1 | 0.79 |
| N#CN1CC[C@@H](OC(=O)N[C@@H]2C[C@H]2c2ccccc2)C1 | 1.34 |
| O=C(Nc1cccc(-c2ccc(-c3nc4ccc(C(F)(F)F)cc4[nH]3)s2)c1)c1cccnc1 | 0.36 |
| COc1ccc(-c2cccc(CNC3CCN(CC4Cn5c(=O)ccc6ccc(F)c4c65)CC3)c2)cc1 (stereo not drawn) | 1.09 |
